These results are taken from patent US20170313604A1, “Wastewater Treatment Method” (PeroxyChem LLC, priority 2016, published 2017).

The structures appear in SMILES notation.

The test concerns E. coli. Briefly: Full scale trial of peracetic acid disinfection at a wastewater treatment plant (E. coli by IDEXX Colisure method). More on the design: species or system Escherichia coli. The protocol: A full scale trial of peracetic acid (15% PAA:23% hydrogen peroxide) disinfection was performed at a wastewater treatment plant in Tennessee, USA. The wastewater contained a high level of colored, aromatic molecules discharged from industrial sources involved in the processing of cotton seeds and other sources of lignin and bio-based polymers. The water quality, and as a result the peracetic acid (PAA) demand, was heavily dependent upon the cyclic discharge rates from these industrial sources. Thus, the PAA efficacy in reducing bacterial concentrations within the wastewater was not only dependent upon the overall flow rate of the WWTP, but also upon the time-dependent water quality. The time-dependent water quality demand on PAA at the treatment plant required the inclusion of a PAA feed-forward dosing scheme to insure that the proper dosing of PAA needed to achieve the target microbial reduction was maintained.
Initial testing consisted of collecting continuous, on-line data for four wastewater quality parameters: color, chemical oxygen demand (COD), oxidation/reduction potential (ORP) and UV transmittance (UVT) at 254 nm. Peracetic acid was measured in situ via the Prominent Dulcotest CTE sensor. The sensor was a membrane-capped amperometric, two electrode sensor for the measurement of PAA in aqueous solution. […] PAA contained in the sample water diffused through the membrane, causing a potential difference between electrodes. The primary signal was converted by the amplifier electronics of the sensor into a 4-20 mA, temperature corrected, output signal, which was optimally controlled via the DULCOMETER diaLog DACa controller. Wastewater color was measured on-line utilizing a ChemScan UV-3151 Series Analyzer with a flow-through sensor. The analyzer drew a sample of wastewater from the untreated side of the disinfection channel, representative of the influent wastewater, to the main unit, which was located in the control house. Wastewater COD and % UVT (% ultraviolet transmittance at 254 nm) were measured on-line using a submersible YSI CarboVis model 701 unit. E. coli analysis were performed by a third-party laboratory, using the IDEXX Colisure method.
The data for each quality parameter then was correlated to PAA demand, accounting for wastewater flow rate. E. coli concentrations were measured at the inflow to the disinfection channel, at the mid-point of the disinfection channel and at the outflow.
Subsequent testing was performed with wastewater color as the water quality parameter for feed-forward control of the PAA dose (PAAdemand), coupled with flow pacing.
At least three cycles of water quality (minimum to maximum wastewater color) were tested with flow rates ranging from 50 to 130 MGD. Sixty three E. coli concentrations were measured during this period. […]

Setting [1] is: effluent after PAA dosing with color feed-forward control plus flow pacing, flow 50 to 130 MGD, power-outage measurement eliminated.

Turning to `CC(=O)OO` [PAA, peracetic acid], the “PAAset point to achieve the desired E. coli reduction” value (at demand neutral performance, this wastewater) turned out to be 7 ppm. Also, for the setting “below the permitted daily maximum, the exception occurred in a power outage with no PAA dosed”, the “E. coli concentration (all but one of sixty three measurements)” value was under 487 cfu/100 mL. Also, under setting [1], the “E. coli arithmetic mean concentration” value was 18 cfu/100 mL and the “E. coli geomean concentration” value was found to be 12 cfu/100 mL.
